Test results: patent US7772177B2, “BIR domain binding compounds” (Aegera Therapeutics, Inc., priority 2005, dated 2010)

Columns and labels:
[1] = molecular target: T1, GST-XIAP BIR3RING (Homo sapiens, UniProt P98170); assay: Fluorescence polarization-based competition assay, XIAP Bir3-RING; format: binding
T1 construct: made in house; host or cells: E. coli DH5-alpha
Description: GST-XIAP BIR3RING: XIAP coding sequence amino acids 246-497 cloned into PGEX2T1 via BamH1 and AVA I. The plasmid was transformed into E. coli DH5α for use in protein expression and purification.
(§1) A fluorescent peptide probe, Fmoc-Ala-Val-Pro-Phe-Tyr(t-Bu)-Leu-Pro-Gly(t-Bu)-Gly-OH was prepared using standard Fmoc chemistry on 2-chlorotrityl chloride resin (Int. J. Pept. Prot. Res. 38:555-561, 1991). Cleavage from the resin was performed using 20% acetic acid in dichloromethane (DCM), which left the side chain still blocked. The C-terminal protected carboxylic acid was coupled to 4′-(aminomethyl)fluorescein (Molecular Probes, A-1351; Eugene, Oreg.) using excess diisopropylcarbodiimide (DIC) in dimethylformamide (DMF) at room temperature and was purified by silica gel chromatography (10% methanol in DCM). The N-terminal Fmoc protecting group was removed using piperidine (20%) in DMF, and purified by silica gel chromatography (20% methanol in DCM, 0.5% HOAc). Finally, the t-butyl side chain protective groups were removed using 95% trifluoroacetic acid containing 2.5% water and 2.5% triisopropyl silane. […] Compound #174 was also used as a fluorescent probe in this assay.
(§2) For all assays, the fluorescence and fluorescence-polarization was evaluated using a Tecan Polarion instrument with the excitation filter set at 485 nm and the emission filter set at 535 nm. For each assay, the concentration of the target protein was first establish by titration of the selected protein in order to produce a linear dose-response signal when incubated alone in the presence of the fluorescent probe. Upon establishing these conditions, the compounds potency (IC50) and selectivity, was assessed in the presence of a fix defined-amount of target protein and fluorescent probe and a 10 point serial dilution of the selected compounds. For each IC50 curve, the assays were run as followed: 25 ul/well of diluted compound in 50 mM MES buffer pH 6.5 were added into a black 96 well plate then 25 ul/well of bovine serum albumin (BSA) at 0.5 mg/ml in 50 mM MES pH 6.5. Auto-fluorescence for each compound was first assessed by performing a reading of the compound/BSA solution alone. Then 25 ul of the fluorescein probe diluted into 50 mM MES containing 0.05 mg/ml BSA were added and a reading to detect quenching of fluorescein signal done. Finally 25 ul/well of the target or control protein (GST-BIRs) diluted at the appropriate concentration in 50 mM MES containing 0.05 mg/ml BSA were added and the fluorescence polarization evaluated.
(§3) For each assay the relative polarization-fluorescence units were plotted against the final concentrations of compound and the IC50 calculated using the Grad pad prism software and/or Cambridge soft. The ki value were derived from the calculated IC50 value as described above and according to the equation described in Nikolovska-Coleska, Z. (2004) Anal Biochem 332, 261-273.
(§4) Compounds exemplified in Table 6 were tested and found to have IC50s in the following ranges: A: >10 μM; B: <10 μM; C: <1 μM using the fluorescence polarization assay, as shown in Table 5. Each of the IC50s was calculated from Graph Pad.

[2] = molecular target: T2, GST-HIAP2 (cIAP-1) BIR 3 (Homo sapiens, UniProt Q13490); assay: Fluorescence polarization-based competition assay, cIAP-1 Bir3; format: binding
T2 construct: made in house; host or cells: E. coli DH5-alpha
Description: GST-HIAP2 (cIAP-1) BIR 3: HIAP2 coding sequence from amino acids 251-363 cloned into PGex4T3 via BamH1 and XhoI. The plasmid was transformed into E. coli DH5α for use in protein expression and purification.
as §1, §2, §3, §4

[3] = molecular target: T3, XIAP Bir3-RING (GST-BIR 3RING) (Homo sapiens, UniProt P98170); assay: Caspase de-repression assay using cellular extracts (apoptosome), XIAP Bir3-RING; format: biochemical; settings: 293 cell S100 extract
T3 construct: made in house; host or cells: E. coli DH5-alpha
Description: 100 ug of 293 cell S100 extract and 0.25 uM-2 uM of GST-Xiap fusion protein (GST-BIR 3RING, GST-linker BIR2 BIR3RING) were co-incubated with serial dilutions of compound (0.02 uM-40 uM). Extracts were activated by adding 1 mM dATP, 0.1 mM ALLN, 133 ug Cytochrome C (final concentrations), and incubating at 37° C. for 25 minutes. All reactions and dilutions used S100 buffer (50 mM Pipes pH 7.0, 50 mM KCl, 0.5 mM EGTA pH 8.0, 2 mM MgCl2 supplemented with 1/1000 dilutions of 2 mg/ml Cytochalisin B, 2, mg/ml Chymotstatin, Leupeptin, Pepstatin, Antipain, 0.1M PMSF, 1M DTT). Final reaction volume was 30 ul. Caspase-3 activity was measured by overlaying 30 ul of a 0.4 mM DEVD-AMC solution. AMC cleavage was measured in a TECAN spectrophotometer at 360 nm excitation and 444 nm emission, on a kinetic cycle of 1 hour with readings taken every 5 minutes. Caspase activity was calculated as Vo of AMC fluorescence/sec. Caspase de-repression by our compounds were compared to fully activated extract and activated extract repressed by the presence of XIAP fusion protein.
Results: Compounds were also tested in the apoptosome assay and the linker-BIR2/caspase-3 inhibition assay and found to have IC50s in the following ranges: A: >10 μM; B: <10 μM; C: <1 μM, as shown in Table 7.

[4] = molecular target: T4, GST-HIAP1(cIAP-2) BIR 3 (Homo sapiens, UniProt Q13489); assay: Fluorescence polarization-based competition assay, cIAP-2 Bir3; format: binding
T4 construct: made in house; host or cells: E. coli DH5-alpha
Description: GST-HIAP1(cIAP-2) BIR 3: HIAP1 coding sequence from amino acids 236-349, cloned into PGex4T3 via BamH1 and XhoI. The plasmid was transformed into E. coli DH5α for use in protein expression and purification.
as §1, §2, §3, §4

T1 sequence (P98170 246-497): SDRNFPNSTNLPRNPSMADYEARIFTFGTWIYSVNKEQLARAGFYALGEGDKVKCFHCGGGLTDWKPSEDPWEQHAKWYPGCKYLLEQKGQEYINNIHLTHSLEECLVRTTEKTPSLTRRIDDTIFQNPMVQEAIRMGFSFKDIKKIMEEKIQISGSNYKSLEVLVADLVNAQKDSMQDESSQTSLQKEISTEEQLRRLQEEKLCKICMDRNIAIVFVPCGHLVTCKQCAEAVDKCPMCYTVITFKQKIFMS
T2 sequence (Q13490 251-363): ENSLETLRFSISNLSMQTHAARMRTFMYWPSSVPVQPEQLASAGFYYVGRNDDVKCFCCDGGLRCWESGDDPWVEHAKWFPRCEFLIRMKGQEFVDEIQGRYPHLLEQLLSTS
T4 sequence (Q13489 236-349): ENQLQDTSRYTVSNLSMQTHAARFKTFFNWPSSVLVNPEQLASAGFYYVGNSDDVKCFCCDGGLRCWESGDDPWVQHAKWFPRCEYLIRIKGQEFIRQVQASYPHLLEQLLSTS
T3 sequence (P98170 246-497): as the sequence (P98170 246-497) above

Structure (SMILES): CC(=O)N(CCCc1ccccc1)C[C@@H]1CCCN1C(=O)[C@@H](NC(=O)[C@H](C)N)C(C)C [Compound 11]
- IC50 [1]: < 10 µM
- IC50 [2]: < 10 µM
- IC50 [3]: < 1 µM
- IC50 [4]: < 10 µM

Structure (SMILES): CN[C@@H](C)C(=O)N[C@H](C(=O)N1CCC[C@H]1CN(CCc1ccccc1)C(=O)[C@@H](C)N)C(C)(C)C [Compound 36]
- IC50 [1]: < 10 µM
- IC50 [2]: < 1 µM
- IC50 [4]: < 1 µM

Structure (SMILES): CN[C@@H](C)C(=O)N[C@H](C(=O)N1CCC[C@H]1CN(CCc1ccccc1)C(=O)[C@H](C)N)C(C)(C)C [Compound 37]
- IC50 [1]: < 1 µM
- IC50 [2]: < 1 µM
- IC50 [4]: < 1 µM

Structure (SMILES): CN[C@@H](C)C(=O)N[C@H](C(=O)N1CCC[C@H]1CN(CCc1ccccc1)C(=O)CN(C)C)C(C)(C)C [Compound 38]
- IC50 [1]: < 1 µM
- IC50 [2]: < 1 µM
- IC50 [4]: < 1 µM

Structure (SMILES): CC[C@H](N)C(=O)N(CCc1ccccc1)C[C@@H]1CCCN1C(=O)[C@@H](NC(=O)[C@H](C)NC)C(C)(C)C [Compound 39]
- IC50 [1]: < 1 µM
- IC50 [2]: < 1 µM
- IC50 [4]: < 1 µM

Structure (SMILES): CN[C@@H](C)C(=O)N[C@H](C(=O)N1CCC[C@H]1CN(CCc1ccccc1)C(=O)CNc1ccccc1)C(C)(C)C [Compound 40]
- IC50 [1]: < 1 µM
- IC50 [2]: < 1 µM
- IC50 [4]: < 1 µM

Structure (SMILES): CN[C@@H](C)C(=O)N[C@H](C(=O)N1CCC[C@H]1CN(CCc1ccccc1)C(=O)CCCN)C(C)(C)C [Compound 41]
- IC50 [1]: < 10 µM
- IC50 [2]: < 1 µM
- IC50 [4]: < 1 µM

Structure (SMILES): CN[C@@H](C)C(=O)N[C@H](C(=O)N1CCC[C@H]1CN(CCc1ccccc1)C(=O)CNC(C)=O)C(C)(C)C [Compound 43]
- IC50 [1]: < 1 µM
- IC50 [2]: < 1 µM
- IC50 [4]: < 1 µM

Structure (SMILES): CC[C@@H](N)C(=O)N(CCc1ccccc1)C[C@@H]1CCCN1C(=O)[C@@H](NC(=O)[C@H](C)NC)C(C)(C)C [Compound 46]
- IC50 [1]: < 1 µM
- IC50 [2]: < 1 µM
- IC50 [4]: < 1 µM

Structure (SMILES): CN[C@@H](C)C(=O)N[C@H](C(=O)N1CCC[C@H]1CN(CCc1ccccc1)C(=O)c1ccccc1)C(C)(C)C [Compound 47]
- IC50 [1]: < 1 µM
- IC50 [2]: < 1 µM
- IC50 [4]: < 1 µM

Structure (SMILES): CN[C@@H](C)C(=O)N[C@@H](CCCN)C(=O)N1CCC[C@H]1CN(CCc1ccccc1)C(=O)CCc1ccccc1 [Compound 49]
- IC50 [1]: < 1 µM
- IC50 [2]: < 1 µM
- IC50 [4]: < 1 µM

Structure (SMILES): CN[C@@H](C)C(=O)N[C@H](C(=O)N1CCC[C@H]1CN(CCc1ccccc1)C(=O)[C@H]1CCCN1)C(C)(C)C [Compound 50]
- IC50 [1]: < 1 µM
- IC50 [2]: < 1 µM
- IC50 [4]: < 1 µM

Structure (SMILES): CN[C@@H](C)C(=O)N[C@H](C(=O)N1CCC[C@H]1CN(CCc1ccccc1)C(=O)[C@@H]1CCCN1)C(C)(C)C [Compound 51]
- IC50 [1]: < 1 µM
- IC50 [2]: < 1 µM
- IC50 [4]: < 1 µM

Structure (SMILES): CN[C@@H](C)C(=O)N[C@H](C(=O)N1CCC[C@H]1CN(CCc1ccccc1)C(=O)[C@H](N)Cc1ccc(OC)cc1)C(C)(C)C [Compound 54]
- IC50 [1]: < 1 µM
- IC50 [2]: < 1 µM
- IC50 [4]: < 1 µM

Structure (SMILES): CN[C@@H](C)C(=O)N[C@H](C(=O)N1CCC[C@H]1CN(CCc1ccccc1)C(=O)[C@H](N)Cc1cccnc1)C(C)(C)C [Compound 55]
- IC50 [1]: < 1 µM
- IC50 [2]: < 1 µM
- IC50 [4]: < 1 µM

Structure (SMILES): CN[C@@H](C)C(=O)N[C@H](C(=O)N1CCC[C@H]1CN(CCc1ccccc1)C(=O)[C@H](N)Cc1ccncc1)C(C)(C)C [Compound 56]
- IC50 [1]: < 1 µM
- IC50 [2]: < 1 µM
- IC50 [4]: < 1 µM

Structure (SMILES): CN[C@@H](C)C(=O)N[C@H](C(=O)N1CCC[C@H]1CN(CCc1ccccc1)C(=O)Cc1ccccc1)C(C)(C)C [Compound 57]
- IC50 [1]: < 1 µM
- IC50 [2]: < 1 µM
- IC50 [4]: < 1 µM

Structure (SMILES): CN[C@@H](C)C(=O)N[C@H](C(=O)N1CCC[C@H]1CN(CCc1ccccc1)C(=O)[C@H](N)CCc1ccccc1)C(C)(C)C [Compound 58]
- IC50 [1]: < 10 µM
- IC50 [2]: < 1 µM
- IC50 [4]: < 1 µM

Structure (SMILES): CN[C@@H](C)C(=O)N[C@H](C(=O)N1CCC[C@H]1CN(C[C@@H](C)c1ccccc1)C(=O)OCc1ccccc1)C(C)(C)C [Compound 59]
- IC50 [1]: < 1 µM
- IC50 [2]: < 1 µM
- IC50 [4]: < 1 µM

Structure (SMILES): CN[C@@H](C)C(=O)N[C@H](C(=O)N1CCC[C@H]1CN(C[C@H](C)c1ccccc1)C(=O)OCc1ccccc1)C(C)(C)C [Compound 60]
- IC50 [1]: < 1 µM
- IC50 [2]: < 1 µM
- IC50 [4]: < 10 µM

Structure (SMILES): C#CCOC[C@H](NC(=O)[C@@H](N)CO)C(=O)N1CCC[C@H]1CN(CCc1ccccc1)C(=O)C(F)(F)F [Compound 61]
- IC50 [1]: < 1 µM
- IC50 [2]: < 1 µM
- IC50 [4]: < 1 µM

Structure (SMILES): CC(C)[C@H](NC(=O)[C@H](C)N)C(=O)N1CCC[C@H]1COCc1ccccc1 [Compound 63]
- IC50 [1]: < 10 µM
- IC50 [2]: < 10 µM
- IC50 [4]: > 10 µM

Structure (SMILES): C[C@H](N)C(=O)N[C@H](C(=O)N1CCC[C@H]1COCc1ccccc1)C(C)(C)C [Compound 64]
- IC50 [1]: < 10 µM
- IC50 [2]: < 10 µM
- IC50 [4]: < 10 µM

Structure (SMILES): CC(C)[C@H](NC(=O)[C@H](C)N)C(=O)N1CCC[C@H]1CN(CCCCOC(=O)c1ccccc1)CCc1ccccc1 [Compound 65]
- IC50 [1]: < 1 µM
- IC50 [2]: < 1 µM
- IC50 [4]: < 1 µM

Structure (SMILES): CC(C)[C@H](NC(=O)[C@H](C)N)C(=O)N1CCC[C@H]1CSCCc1ccccc1 [Compound 66]
- IC50 [1]: < 10 µM
- IC50 [2]: < 10 µM
- IC50 [4]: < 10 µM

Structure (SMILES): CC(C)[C@H](NC(=O)[C@H](C)N)C(=O)N1CCC[C@H]1CS(=O)(=O)CCc1ccccc1 [Compound 67]
- IC50 [1]: > 10 µM
- IC50 [2]: < 10 µM
- IC50 [4]: < 10 µM

Structure (SMILES): CN[C@@H](C)C(=O)N[C@H](C(=O)N1CCC[C@H]1CN(CCc1ccccc1)S(=O)(=O)Cc1ccccc1)C(C)(C)C [Compound 68]
- IC50 [1]: < 1 µM
- IC50 [2]: < 1 µM
- IC50 [4]: < 1 µM

Structure (SMILES): CN[C@@H](C)C(=O)N[C@H](C(=O)N1CCC[C@H]1CN(CCc1ccccc1)S(=O)(=O)c1ccccc1)C(C)(C)C [Compound 69]
- IC50 [1]: < 1 µM
- IC50 [2]: < 1 µM
- IC50 [4]: < 1 µM
